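Growth conditions: 96-well plates. Treatment: test compound, 48 hours, 5 concentrations. Analysis: linear interpolation between bracketing concentrations; unreached endpoints set to highest concentration. Here, GI50 denotes the concentration required for 50% inhibition of growth. TGI marks complete inhibition of growth.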
What was measured:
Assay in all cases: NCI anticancer screen, dose series, 48 h
[1] = tested on: HCT-116 colon
[2] = tested on: SW-620 colon
[3] = tested on: A549 NSCLC
[4] = tested on: NCI-H460 lung
[5] = tested on: MDA-MB-468 breast
[6] = tested on: SNB-19 CNS
[7] = tested on: NCI/ADR-RES ovarian
[8] = tested on: MDA-MB-435
[9] = tested on: HT29 colon
[10] = tested on: U251 CNS
[11] = tested on: UACC-257 melanoma
[12] = tested on: SNB-75 CNS
[13] = tested on: T-47D breast
[14] = tested on: MDA-MB-231 breast
[15] = tested on: HL-60(TB) leukemia
[16] = tested on: RPMI-8226 leukemia
[17] = tested on: LOX IMVI melanoma
[18] = tested on: SF-268 CNS
[19] = tested on: SF-295 CNS
[20] = tested on: ACHN renal
[21] = tested on: SK-MEL-5 melanoma
[22] = tested on: RXF 393 renal
[23] = tested on: NCI-H226 lung
[24] = tested on: IGROV1 ovarian
[25] = tested on: UACC-62 melanoma
[26] = tested on: CAKI-1 renal
[27] = tested on: MOLT-4 leukemia
[28] = tested on: CCRF-CEM leukemia
[29] = tested on: M14 melanoma
[30] = tested on: SK-OV-3 ovarian
[31] = tested on: HCC-2998 colon
[32] = tested on: COLO 205 colon
[33] = tested on: TK-10 renal
[34] = tested on: HOP-62 NSCLC
[35] = tested on: PC-3 prostate
[36] = tested on: HOP-92 NSCLC
[37] = tested on: SK-MEL-28 melanoma
[38] = tested on: HS 578T breast
[39] = tested on: OVCAR-8 ovarian
[40] = tested on: EKVX NSCLC
[41] = tested on: OVCAR-4 ovarian
[42] = tested on: UO-31 renal
[43] = tested on: MALME-3M melanoma
[44] = tested on: DU-145 prostate
[45] = tested on: MCF7 breast
[46] = tested on: HCT-15 colon
[47] = tested on: SF-539 CNS
[48] = tested on: KM12 colon
[49] = tested on: K-562 leukemia
[50] = tested on: SR leukemia
[51] = tested on: NCI-H23 lung
[52] = tested on: OVCAR-5 ovarian
[53] = tested on: NCI-H522 lung
[54] = tested on: SK-MEL-2 melanoma
[55] = tested on: SN12C renal
[56] = tested on: A498 renal
[57] = tested on: OVCAR-3 ovarian
[58] = tested on: 786-0 renal
[59] = tested on: BT-549 breast

COc1ccc(-c2nc3ccc(-c4nnc(SCC(=O)Nc5ccc(/C(C)=N\O)cc5)o4)cc3[nH]2)cc1
GI50 [1]: 3.31 µM
TGI [1]: > 100 µM
GI50 [2]: 26.1 µM
TGI [2]: 87.6 µM
GI50 [3]: 14.1 µM
TGI [3]: 35.6 µM
GI50 [4]: 15 µM
TGI [4]: 53 µM
GI50 [5]: 6.35 µM
TGI [5]: 19.3 µM
GI50 [6]: 13.1 µM
TGI [6]: 28.3 µM
GI50 [7]: > 100000 nM
TGI [7]: > 100 µM
GI50 [8]: 4000 nM
TGI [8]: 18.1 µM
GI50 [9]: 13.8 µM
TGI [9]: 35.6 µM
GI50 [10]: 4300 nM
TGI [10]: 20.4 µM
GI50 [11]: 4.31 µM
TGI [11]: 17.2 µM
GI50 [12]: 2800 nM
TGI [12]: 14.9 µM
GI50 [13]: 10 µM
TGI [13]: 34.8 µM
GI50 [14]: 3830 nM
TGI [14]: 13.4 µM
GI50 [15]: 19.5 µM
TGI [15]: > 100 µM
GI50 [16]: 4 µM
TGI [16]: > 100 µM
GI50 [17]: 5.69 µM
TGI [17]: 19.4 µM
GI50 [18]: 4.38 µM
TGI [18]: 23.1 µM
GI50 [19]: 14.2 µM
TGI [19]: 32.8 µM
GI50 [20]: 13 µM
TGI [20]: 35.2 µM
GI50 [21]: 1680 nM
TGI [21]: 3.66 µM
GI50 [22]: 2030 nM
TGI [22]: 5.18 µM
GI50 [23]: 11.7 µM
TGI [23]: 33.2 µM
GI50 [24]: 12 µM
TGI [24]: 24.3 µM
GI50 [25]: 3200 nM
TGI [25]: 12 µM
GI50 [26]: 5.93 µM
TGI [26]: 25 µM
GI50 [27]: 9.01 µM
TGI [27]: > 100 µM
GI50 [28]: 7.22 µM
TGI [28]: > 100 µM
GI50 [29]: 3.05 µM
TGI [29]: > 100 µM
GI50 [30]: 12.2 µM
TGI [30]: 28.8 µM
GI50 [31]: 50.8 µM
TGI [31]: > 100000 nM
GI50 [32]: 26.2 µM
TGI [32]: > 100 µM
GI50 [33]: 19.8 µM
TGI [33]: 37.5 µM
GI50 [34]: 22.9 µM
TGI [34]: > 100 µM
GI50 [35]: 3050 nM
TGI [35]: 10.8 µM
GI50 [36]: 4.14 µM
TGI [36]: 19.7 µM
GI50 [37]: 2050 nM
TGI [37]: 4.03 µM
GI50 [38]: 2.75 µM
TGI [38]: 8.15 µM
GI50 [39]: 7.7 µM
TGI [39]: 44.6 µM
GI50 [40]: 17.1 µM
TGI [40]: 48.8 µM
GI50 [41]: 20.9 µM
TGI [41]: 91.7 µM
GI50 [42]: 33.5 µM
TGI [42]: > 100000 nM
GI50 [43]: 1690 nM
TGI [43]: 3.95 µM
GI50 [44]: 14.8 µM
TGI [44]: 31.8 µM
GI50 [45]: 8.61 µM
TGI [45]: 30.9 µM
GI50 [46]: > 100000 nM
TGI [46]: > 100000 nM
GI50 [47]: 2150 nM
TGI [47]: 6.35 µM
GI50 [48]: 10.8 µM
TGI [48]: > 100 µM
GI50 [49]: 3680 nM
TGI [49]: > 100 µM
GI50 [50]: > 100 µM
TGI [50]: > 100 µM
GI50 [51]: 11 µM
TGI [51]: 33.9 µM
GI50 [52]: 19.9 µM
TGI [52]: 41 µM
GI50 [53]: 6.37 µM
TGI [53]: 23 µM
GI50 [54]: 5.27 µM
TGI [54]: 17.8 µM
GI50 [55]: 11.6 µM
TGI [55]: 28 µM
GI50 [56]: 22.7 µM
TGI [56]: 37.2 µM
GI50 [57]: 12.7 µM
TGI [57]: 38.1 µM

COc1ccc(C(=O)/C=C/c2ccc(Cl)c(C(F)(F)F)c2)cc1S(N)(=O)=O
GI50 [58]: 419 nM
TGI [58]: 1800 nM
GI50 [2]: 1.23 µM
TGI [2]: 2.69 µM
GI50 [3]: 2.34 µM
TGI [3]: 10.3 µM
GI50 [4]: 2.4 µM
TGI [4]: 6.62 µM
GI50 [5]: 1.34 µM
TGI [5]: 2.69 µM
GI50 [6]: 1.66 µM
TGI [6]: 3.37 µM
GI50 [7]: 1050 nM
TGI [7]: 3.33 µM
GI50 [8]: 1750 nM
TGI [8]: 4.28 µM
GI50 [9]: 1.52 µM
TGI [9]: 3.06 µM
GI50 [10]: 1420 nM
TGI [10]: 3.08 µM
GI50 [11]: 2.1 µM
TGI [11]: 6.2 µM
GI50 [12]: 1620 nM
TGI [12]: 9.69 µM
GI50 [13]: 2.37 µM
TGI [13]: 9.36 µM
GI50 [14]: 1690 nM
TGI [14]: 3.37 µM
GI50 [15]: 1.72 µM
TGI [15]: 5.49 µM
GI50 [17]: 0.313 µM
TGI [17]: 1.1 µM
GI50 [18]: 10 µM
TGI [18]: 32.1 µM
GI50 [19]: 1.64 µM
TGI [19]: 3.32 µM
GI50 [20]: 1.47 µM
TGI [20]: 2.84 µM
GI50 [21]: 3630 nM
TGI [21]: 13.3 µM
GI50 [22]: 1640 nM
TGI [22]: 3.1 µM
GI50 [23]: 2.22 µM
TGI [23]: 5.6 µM
GI50 [24]: 1.87 µM
TGI [24]: 4.01 µM
GI50 [25]: 1520 nM
TGI [25]: 3.41 µM
GI50 [26]: 1.57 µM
TGI [26]: 4.16 µM
GI50 [27]: 2.57 µM
TGI [27]: 8.33 µM
GI50 [30]: 7.9 µM
TGI [30]: 23.8 µM
GI50 [31]: 1.59 µM
TGI [31]: 2930 nM
GI50 [32]: 1.96 µM
TGI [32]: 4.08 µM
GI50 [33]: 2.59 µM
TGI [33]: 7.23 µM
GI50 [34]: 1.93 µM
TGI [34]: 4.13 µM
GI50 [35]: 1750 nM
TGI [35]: 4.52 µM
GI50 [36]: 2.01 µM
TGI [36]: 5.81 µM
GI50 [37]: 1740 nM
TGI [37]: 3.19 µM
GI50 [38]: 6.57 µM
TGI [38]: 38.8 µM
GI50 [39]: 1.74 µM
TGI [39]: 4.51 µM
GI50 [40]: 2.15 µM
TGI [40]: 5.75 µM
GI50 [41]: 2.8 µM
TGI [41]: 12.5 µM
GI50 [42]: 1.4 µM
TGI [42]: 2740 nM
GI50 [43]: 1880 nM
TGI [43]: 4.01 µM
GI50 [44]: 4.99 µM
TGI [44]: 17 µM
GI50 [45]: 0.333 µM
TGI [45]: 1.39 µM
GI50 [46]: 893 nM
TGI [46]: 2340 nM
GI50 [47]: 1610 nM
TGI [47]: 3 µM
GI50 [59]: 1710 nM
TGI [59]: 3.18 µM
GI50 [48]: 1.76 µM
TGI [48]: 5.65 µM
GI50 [49]: 1080 nM
TGI [49]: > 100 µM
GI50 [51]: 1.62 µM
TGI [51]: 3.04 µM
GI50 [52]: 3.27 µM
TGI [52]: 9.35 µM
GI50 [53]: 1.54 µM
TGI [53]: 3.15 µM
GI50 [54]: 6.78 µM
TGI [54]: 20.4 µM
GI50 [55]: 1.45 µM
TGI [55]: 2.94 µM
GI50 [56]: 12.9 µM
TGI [56]: 25.6 µM
GI50 [57]: 1.42 µM
TGI [57]: 2.87 µM
